These results are taken from ChEMBL document CHEMBL1137450, “Dual serotonin transporter inhibitor/histamine H3 antagonists: development of rigidified H3 pharmacophores” (Bioorg Med Chem Lett, 2007).

Structures are written as SMILES. The source made the active and inactive calls. The calls are words filed in the database; no cut-off is given here.

The target in assay [1] is Sodium-dependent serotonin transporter (Rattus norvegicus, UniProt P31652). As to the kind of experiment: Binding affinity at rat SERT.
In assay [2] the target is Sodium-dependent serotonin transporter (Homo sapiens, UniProt P31645). As to the kind of experiment: Binding affinity at human SERT.
Assay [3] relates to Mus musculus. The assay can be described thus: Effect on 5HTP induced mouse head twitch model at 10 mg/kg after 1 hr. The format is functional, organism-based. On the set-up: dose 10 mg/kg.
Assay [4] concerns Mus musculus. The assay can be described thus: Effect on 5HTP induced mouse head twitch model at 10 mg/kg after 24 hrs. The format is functional.
For the next assay, the target named is Histamine H3 receptor (Homo sapiens, UniProt Q9Y5N1). As to the kind of experiment: Antagonistic activity at H3 receptor expressed in […] cells assessed as forskolin stimulated cyclic AMP accumulation by functional assay. The format is cell-based, SK-N-MC. To be noted: read-out: pA2 (converted).
Histamine H3 receptor, sequence (Q9Y5N1 whole entry): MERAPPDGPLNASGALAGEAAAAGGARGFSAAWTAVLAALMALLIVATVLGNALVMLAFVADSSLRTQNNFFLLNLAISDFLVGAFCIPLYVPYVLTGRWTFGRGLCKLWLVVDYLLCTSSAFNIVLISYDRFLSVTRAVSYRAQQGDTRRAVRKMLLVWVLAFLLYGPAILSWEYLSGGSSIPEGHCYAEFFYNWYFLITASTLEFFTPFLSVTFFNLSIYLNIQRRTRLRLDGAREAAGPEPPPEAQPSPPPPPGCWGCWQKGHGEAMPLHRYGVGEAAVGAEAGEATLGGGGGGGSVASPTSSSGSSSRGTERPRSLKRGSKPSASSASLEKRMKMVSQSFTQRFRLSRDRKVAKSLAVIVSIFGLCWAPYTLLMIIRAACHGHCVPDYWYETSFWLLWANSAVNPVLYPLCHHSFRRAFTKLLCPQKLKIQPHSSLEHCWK

Sodium-dependent serotonin transporter (Homo sapiens, UniProt P31645), sequence (P31645 whole entry): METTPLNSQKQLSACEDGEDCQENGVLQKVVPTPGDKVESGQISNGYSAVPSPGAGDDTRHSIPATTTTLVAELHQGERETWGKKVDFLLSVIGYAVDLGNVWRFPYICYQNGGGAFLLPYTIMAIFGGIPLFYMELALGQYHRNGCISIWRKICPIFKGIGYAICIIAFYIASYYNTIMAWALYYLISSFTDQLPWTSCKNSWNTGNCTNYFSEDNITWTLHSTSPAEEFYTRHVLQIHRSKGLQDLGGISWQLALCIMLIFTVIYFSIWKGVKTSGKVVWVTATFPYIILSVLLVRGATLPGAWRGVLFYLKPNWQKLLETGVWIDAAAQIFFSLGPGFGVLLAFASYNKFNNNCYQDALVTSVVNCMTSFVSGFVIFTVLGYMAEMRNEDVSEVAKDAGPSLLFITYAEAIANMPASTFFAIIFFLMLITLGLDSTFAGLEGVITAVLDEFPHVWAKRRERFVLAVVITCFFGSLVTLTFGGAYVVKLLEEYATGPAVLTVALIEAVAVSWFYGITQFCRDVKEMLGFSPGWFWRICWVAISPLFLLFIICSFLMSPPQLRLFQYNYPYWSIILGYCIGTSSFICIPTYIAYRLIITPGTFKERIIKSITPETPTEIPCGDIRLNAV
Sodium-dependent serotonin transporter (Rattus norvegicus, UniProt P31652), sequence (P31652 whole entry): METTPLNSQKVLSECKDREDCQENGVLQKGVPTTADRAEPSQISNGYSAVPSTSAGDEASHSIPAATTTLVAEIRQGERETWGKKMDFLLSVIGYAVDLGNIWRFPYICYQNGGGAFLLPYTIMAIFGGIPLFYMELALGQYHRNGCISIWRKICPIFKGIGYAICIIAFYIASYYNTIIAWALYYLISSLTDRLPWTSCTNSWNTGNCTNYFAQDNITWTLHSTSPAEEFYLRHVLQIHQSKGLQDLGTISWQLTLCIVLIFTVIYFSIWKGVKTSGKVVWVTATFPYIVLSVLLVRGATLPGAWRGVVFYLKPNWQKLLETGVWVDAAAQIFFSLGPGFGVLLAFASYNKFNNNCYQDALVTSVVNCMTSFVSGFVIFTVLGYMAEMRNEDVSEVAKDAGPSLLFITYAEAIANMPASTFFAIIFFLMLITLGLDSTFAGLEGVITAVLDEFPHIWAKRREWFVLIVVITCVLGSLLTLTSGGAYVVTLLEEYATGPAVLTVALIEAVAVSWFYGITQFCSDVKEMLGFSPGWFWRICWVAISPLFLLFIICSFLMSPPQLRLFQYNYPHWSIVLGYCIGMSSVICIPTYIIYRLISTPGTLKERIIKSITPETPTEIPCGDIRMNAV

For the molecule `CSc1ccc(C2CN(C)Cc3cc(Oc4nc(CN5CCOCC5)cs4)ccc32)cc1` (centres undefined), the Ki (as a rule, a measure of affinity in units of concentration, obtained from inhibition or displacement) in assay [1] worked out at 14 nM; in assay [2] it was 15.5 nM.
Turning to `CSc1ccc(C2CN(C)Cc3cc(Oc4ccc(CN5CCCCC5)cn4)ccc32)cc1` (centres undefined), the outcome in the assay on Mus musculus [3] was inactive. Besides, the Activity in the assay on Mus musculus [4] stood at 272%. Also, on Histamine H3 receptor, the Kb is 20 nM.
Molecule `CN(C)CCC(Oc1ccccc1)c1ccc(OCCCN2CCCCC2)cc1` (centres undefined) came in with a Ki in assay [2] of 25.7 nM.
Consider `CSc1ccc(C2CN(C)Cc3cc(Oc4nc(CN5CCCCC5)cs4)ccc32)cc1` (centres undefined), for which, at Histamine H3 receptor, the Kb was 20 nM.
As for `CSc1ccc(C2CN(C)Cc3cc(Oc4cncc(CN5CCCCC5)c4)ccc32)cc1` (centres undefined), the Ki was determined as 9.7 nM in assay [1] and 8.3 nM in assay [2].
